Reference: PMC6629785, “Synthesis and Pharmacological Evaluation of a Novel Peptide Based on Anemonia sulcata BDS-I Toxin as a New KV3.4 Inhibitor Exerting a Neuroprotective Effect Against Amyloid-β Peptide” (Frontiers in Chemistry, 2019)
Ends that are not written are not given here.

Test system: KV3.4 currents
Assay: Whole-cell patch clamp of KV3.4 currents in NGF-differentiated PC-12 cells, control or exposed to Aβ1−42
Format: cell-based, Rat
Details: peak of +40 mV pulse, 6 to 10 cells, 3 sessions; for effect on KV3.4 activity in NGF-differentiated PC-12 cells: 100 nM, control condition (no Aβ1−42); for effect on KV3.4 upregulation elicited by Aβ1−42 exposure: peptide 100 nM, 30 min pre-treatment, Aβ1−42 oligomers 5 μM for 24 h
Description: Rat pheochromocytoma cells (PC-12 cells) were grown as previously described (Pannaccione et al., [2005], [2007]). For all the experiments, cells were seeded at low density on glass cover-slips coated with poly-L-lysine (50 μg/ml). Differentiation of PC-12 cells was achieved by treatment with neuronal growth factor (NGF) 2.5 S (50 ng/ml) for 7–9 days (Greene and Tischler, [1976]). For electrophysiological experiments, cells were seeded on glass cover-slips and used after 7–9 days of NGF.
Currents from CHO cells were recorded at room temperature 1-2 days after transfection. The extracellular solution contained the following (in mM): 138 NaCl, 5.4 KCl, 2 CaCl2, 1 MgCl2, 10 glucose and 10 HEPES, adjusted pH 7.4 with NaOH. The pipette solution contained (in mM) the following: 140 KCl, 2 MgCl2, 10 EGTA, 10 HEPES, 5 Mg-ATP, adjusted pH 7.4 with KOH (Miceli et al., [2015]). KV3.4 currents were measured by applying voltage steps from −100 mV to +60 mV from a holding potential of −80 mV (Abbott et al., [2001]). Moreover, the total outward K^+ currents were recorded in NGF-differentiated PC-12 cells using the extracellular solution contained the following (in mM): 150 NaCl, 5.4 KCl, 3 CaCl2, 1 MgCl2, 10 HEPES, adjusted pH 7.4 with NaOH. The pipette solution contained the following (in mM): 140 KCl, 2 MgCl2, 10 HEPES, 10 glucose, 10 EGTA, and 1 Mg-ATP adjusted at pH 7.4 with KOH (Diochot et al., [1998]). All experiments were performed in the presence of 50 nM tetrodotoxin (TTX) and 10 μ M nimodipine in the extracellular solution. To discriminate K^+ current components appropriate electrophysiological protocols were used (Pannaccione et al., [2007]). Steady-state activation and inactivation properties were measured by using appropriate protocols (Pannaccione et al., [2005]). […] The capacitance of the membrane was calculated according to the following equation: Cm = τc·Io/ΔEm (1-I∞/Io), where Cm is membrane capacitance, τc is the time constant of the membrane capacitance, Io is the maximum capacitance current value, ΔEm is the amplitude of the voltage step, and I∞ is the amplitude of the steady-state current. K^+ currents were recorded by patch-clamp technique in CHO and NGF-differentiated PC-12 cells using a commercially available amplifier (Axopatch 200B, Molecular Devices) and Digidata 1322A interface (Molecular Devices, USA). […] Data were acquired and analyzed using the pClamp software (version 9, Molecular Devices). […]
The peptide used in our study was synthesized by INBIOS (Pozzuoli, Naples, Italy) using the Aβ1−42 sequence of human APP [UniProtKB-P05067 (A4_HUMAN)]. The purity of the peptide was assessed by high-performance liquid chromatography (>95% pure) and the amino acid composition was verified by mass spectrometry. […]

Substance	effect on KV3.4 activity in NGF-differentiated PC-12 cells	effect on KV3.4 upregulation elicited by Aβ1−42 exposure
H-GSAFAPAA-OH [BDS-I[1-8scr]]	did not exert any effect	did not counteract
AAPAFASG [BDS-I[1-8]]	blocked KV3.4 activity	prevented
